Results from patent publication US7029696B2, “Delivery and activation through liposome incorporation of diaminocyclohexane platinum(II) complexes” (priority 1996, dated 2006).
“Also recorded” adds a separate entry of the source.

How the values were obtained:
[1] = test system: intraperitoneal L1210 mouse leukemia; assay: In vivo antitumor activity of liposomal Pt-complexes
Procedure: In vivo. The in vivo antitumor activity of liposomal Pt-complexes was assessed against intraperitoneal L1210 mouse leukemia. […] The results were expressed as the median survival of treated animals divided by the median survival of control animals ×100 (% T/C).

[2] = Intraliposomal stability of Pt-complexes by HPLC; format: physicochemical; details: for intraliposomal stability (in words): DMPC:DMPG liposomes, saline or PBS; for percentage of intact Pt-complex: in liposomes, 6 h after liposome preparation; for NDDP stability (%): liposomal NDDP, lipids as dry powder
Procedure: Stability of the different Pt-complexes incorporated in liposomes was determined as described previously by comparing the HPLC profiles as a function of time. In brief, aliquoted samples of liposome suspension were diluted (7×) with methanol at 0, 2, 6, and 24 h after liposome preparation, and each sample was then monitored by HPLC using chromega-8 bond column (4.6 mm×25 cm, 8 μm: ES Industries, NJ) and 10% water-methanol as eluant. The flow rate was 1 ml/min, and the complexes were detected by UV at 224 nm wavelength.

[3] = Liposome entrapment (entrapment efficiency, free drug crystals by optic microscopy); format: physicochemical; details: generated within the liposome membranes from NDDP
Source text: NDDP and its two isomers, B10 and L10 were formulated in liposomes composed of combinations of various lipids including DMPC, DMPG, DOPC, DOPG, PA, PE, and PS. The liposomes were formed by reconstituting preliposomal powders containing the Pt-complex and the lipids with unbuffered 0.9% NaCl aqueous solution (saline) or phosphate-buffered saline (PBS). […] The median size of the multilamellar vesicles was 1–2 μm in all preparations. The median size of the small-size liposomes prepared by ultrasonication of multilamellar vesicles was 50–100 nm.

[4] = Solubility of DACH-Pt-Cl2; format: physicochemical
[5] = Tracking of liposomal NDDP degradation by 195Pt NMR and HPLC; format: physicochemical
Procedure: To characterize the active intermediate(s) in the reaction cascade of L-NDDP reconstituted in saline (0.9% NaCl), tracking experiments using ^195Pt NMR spectra in combination with ^31P NMR were performed. Samples 1–3 were prepared using the lipids DMPC and DMPG purchased in chloroform solution, while samples 4–8 were prepared using lipids in dry powder. In samples 1–3, the chloroform was initially evaporated in a rotavapor. The lipid film was dissolved in t-butanol containing the NDDP in solution. An aliquot of this solution was kept at 40° C. for 6 h and then lyophilized and extracted with methanol (sample 3). The remaining was lyophilized immediately, thus resulting in a preliposomal powder, which was reconstituted with saline to produce the liposome suspension. The liposome suspension was kept at room temperature for 6 hours. The Pt compounds and lipids were then extracted with chloroform (sample 1) or the sample was lyophilized to eliminate the water and the powder dissolved in methanol (sample 2) (see FIG. 6). Samples 4, 5, and 6 were prepared by complete evaporation of solvents after keeping the samples at 40° C. for 6 h, and redissolving them in methanol. Samples 7 and 8 were prepared by lyophilization of water for 1–2 d and redissolution in methanol. All samples were prechecked by HPLC before tracking with NMR. Chemical shifts of the products are expressed in parts-per-million relative to Na2PtCl6 in ^195Pt and DMPC in ^31P NMR.

[6] = liposomal, DMPC:DMPG 7:3, lipids in chloroform, reconstituted in PBS, 25 mg/kg i.p. day 1
[7] = liposomal, DMPC:DMPG 7:3, lipids in chloroform, reconstituted in PBS, 50 mg/kg i.p. day 1
[8] = liposomal, DMPC:DMPG 7:3, lipids in chloroform, reconstituted in PBS, 100 mg/kg i.p. day 1
[9] = liposomal, DMPC:DMPG 7:3, lipids in chloroform, reconstituted in PBS, 150 mg/kg i.p. day 1
[10] = liposomal, DMPC:DMPG 7:3, lipids in chloroform, reconstituted in saline, 25 mg/kg i.p. day 1
[11] = liposomal, DMPC:DMPG 7:3, lipids in chloroform, reconstituted in saline, 50 mg/kg i.p. day 1
[12] = liposomal, DMPC:DMPG 7:3, lipids in chloroform, reconstituted in saline, 100 mg/kg i.p. day 1
[13] = liposomal, DMPC:DMPG 7:3, lipids in chloroform, reconstituted in saline, 150 mg/kg i.p. day 1
[14] = liposomal, lipids in chloroform, reconstituted in PBS
[15] = liposomal, lipids in chloroform, reconstituted in saline

CCCCCCC(C)(C)C(=O)[O][Pt][O]C(=O)C(C)(C)CCCCCC.N[C@@H]1CCCC[C@H]1N [B10]
% T/C [1, 6]: 114% | % T/C [1, 7]: 114% | % T/C [1, 8]: 142% | % T/C [1, 9]: 163% | % T/C [1, 10]: 114% | % T/C [1, 11]: 128% | % T/C [1, 12]: 228% | % T/C [1, 13]: 163% | antitumor activity (in words) [1, 14]: no significant antitumor activity | optimal dose [1, 15]: 100 mg | intraliposomal stability (in words) [2]: intermediate stability | percentage of intact Pt-complex ([2]; reconstituted in PBS): 95.9% | percentage of intact Pt-complex ([2]; reconstituted in saline): 85.0%

dichloro(1,2-diaminocyclohexane) platinum(II) [DACH-Pt—Cl2]
time the drug remains liposome-bound without leaking out and crystallizing [3]: at least 24 h | solubility in dimethylformamide ([4]; dimethylformamide (DMF)): good solubility | solubility in most organic solvents ([4]; most organic solvents): insoluble | solubility in water ([4]; water): very low solubility; also recorded: lack of solubility

CCCCCCCCCC(=O)[O][Pt][O]C(=O)CCCCCCCCC.N[C@@H]1CCCC[C@H]1N [L10]
% T/C [1, 6]: 114% | % T/C [1, 7]: 100% | % T/C [1, 8]: 100% | % T/C [1, 9]: 100% | % T/C [1, 10]: 100% | % T/C [1, 11]: 157% | % T/C [1, 12]: 178% | % T/C [1, 13]: 123% | antitumor activity (in words) [1, 14]: no significant antitumor activity | optimal dose [1, 15]: 100 mg | intraliposomal stability (in words) [2]: highly stable | percentage of intact Pt-complex ([2]; reconstituted in PBS): 100% | percentage of intact Pt-complex ([2]; reconstituted in saline): 93.1%

cis-bis-neodecanoato-trans-R,R-1,2-diaminocyclohexane platinum (II) [NDDP]
stability in the absence of DMPG ([5]; liposomes composed of only DMPC): completely preserved stability | degradation of NDDP ([5]; sample 7: dry-powder lipids, saline pH 6.5–7.0, 6 h at room temperature): < 5% | degradation of NDDP ([5]; sample 8: dry-powder lipids, acidic saline pH 3.0–4.0, in 10 min, yielding DACH-Pt—Cl2): 60–95% | % T/C [1, 6]: 114% | % T/C [1, 7]: 171% | % T/C [1, 8]: 200% | % T/C [1, 9]: 150% | % T/C [1, 10]: 157% | % T/C [1, 11]: 211% | % T/C [1, 12]: Toxic | % T/C [1, 13]: Toxic | optimal dose ([1]; liposomal, dry lipids, reconstituted with saline of pH 3.0): 25 mg/kg | optimal dose ([1]; liposomal, dry lipids, reconstituted with saline of pH 5.0): 50 mg/kg | optimal dose ([1]; liposomal, dry lipids, reconstituted with saline of pH 7.0): 100 mg/kg | % T/C ([1]; liposomal, dry lipids, saline pH 3.0, 12.5 mg/kg, administered 6 h after reconstitution): 157% | % T/C at the optimal dose ([1]; liposomal, dry lipids, saline pH 3.0, 25 mg/kg): 214% | % T/C ([1]; liposomal, dry lipids, saline pH 3.0, 25 mg/kg, administered 10 min after reconstitution): 150% | % T/C ([1]; liposomal, dry lipids, saline pH 3.0, 25 mg/kg, administered 2 h after reconstitution): 186% | % T/C ([1]; liposomal, dry lipids, saline pH 3.0, 25 mg/kg, administered 6 h after reconstitution): 240% | % T/C ([1]; liposomal, dry lipids, saline pH 3.0, 50 mg/kg, administered 6 h after reconstitution): Toxic | % T/C ([1]; liposomal, dry lipids, saline pH 5.0, 12.5 mg/kg, administered 6 h after reconstitution): 186% | % T/C ([1]; liposomal, dry lipids, saline pH 5.0, 25 mg/kg, administered 6 h after reconstitution): 200% | % T/C at the optimal dose ([1]; liposomal, dry lipids, saline pH 5.0, 50 mg/kg): 271% | % T/C ([1]; liposomal, dry lipids, saline pH 5.0, 50 mg/kg, administered 10 min after reconstitution): 133% | % T/C ([1]; liposomal, dry lipids, saline pH 5.0, 50 mg/kg, administered 2 h after reconstitution): 216% | % T/C ([1]; liposomal, dry lipids, saline pH 5.0, 50 mg/kg, administered 6 h after reconstitution): 270% | % T/C ([1]; liposomal, dry lipids, saline pH 5.0, 100 mg/kg, administered 6 h after reconstitution): Toxic | % T/C ([1]; liposomal, dry lipids, saline pH 7.0, 25 mg/kg, administered 6 h after reconstitution): 186% | % T/C ([1]; liposomal, dry lipids, saline pH 7.0, 50 mg/kg, administered 6 h after reconstitution): 200% | % T/C at the optimal dose ([1]; liposomal, dry lipids, saline pH 7.0, 100 mg/kg): 271% | % T/C ([1]; liposomal, dry lipids, saline pH 7.0, 100 mg/kg, administered 10 min after reconstitution): 163% | % T/C ([1]; liposomal, dry lipids, saline pH 7.0, 100 mg/kg, administered 2 h after reconstitution): 216% | % T/C ([1]; liposomal, dry lipids, saline pH 7.0, 100 mg/kg, administered 6 h after reconstitution): 257% | optimal dose [1, 14]: 100 mg/kg | optimal dose [1, 15]: 50 mg/kg | original NDDP remaining ([2]; 24 h, DMPC:DMPG 7:3, NDDP:total lipid ratio 1:15 or 1:30): 25% | initial NDDP present ([2]; 24 hours, DMPC:DMPG 7:3, NDDP:total lipid ratio 1:5 or 1:10): 85% | intraliposomal stability (in words) [2]: rather unstable | percentage of intact Pt-complex ([2]; reconstituted in PBS): 82.1% | percentage of intact Pt-complex ([2]; reconstituted in saline): 43.7% | NDDP stability (%) ([2]; saline pH 3.0, 10 min after reconstitution): 43% | NDDP stability (%) ([2]; saline pH 3.0, 2 h after reconstitution): 15% | NDDP stability (%) ([2]; saline pH 3.0, 6 h after reconstitution): 7% | NDDP stability (%) ([2]; saline pH 5.0, 10 min after reconstitution): 80% | NDDP stability (%) ([2]; saline pH 5.0, 1 h after reconstitution): 72% | NDDP stability (%) ([2]; saline pH 5.0, 2 h after reconstitution): 67% | NDDP stability (%) ([2]; saline pH 5.0, 6 h after reconstitution): 38% | NDDP stability (%) ([2]; saline pH 7.0, 10 min after reconstitution): 100% | NDDP stability (%) ([2]; saline pH 7.0, 2 h after reconstitution): 95% | NDDP stability (%) ([2]; saline pH 7.0, 6 h after reconstitution): 92% | NDDP transformed into the active Pt-species ([2]; saline pH 5.0, calculated amount of activated species (35 mg/kg of 50 mg/kg)): about 70% | NDDP transformed into the active Pt-species ([2]; saline pH 7.0, calculated amount of activated species (10 mg/kg of 100 mg/kg)): 10% | effect of liposome size on intraliposomal stability ([2]; ultrasonication of multilamellar vesicles, regardless of lipid composition): did not affect the intraliposomal stability

N.N.[Cl][Pt][Cl] [Cisplatin, cis-dichlorodiamine-platinum(II), reference compound]
% T/C ([1]; Table 2 comparator, 10 mg/kg i.p. day 1, printed in the Saline column): 142% | % T/C ([1]; Table 3 comparator, 10 mg/kg, printed in the 6 h column): 150%
